Values after ≈ are worked out from the molar mass of the structure shown.
Assays:
Staphylococcus aureus [1] = assay: Antibacterial activity against erythromycin-susceptible Staphylococcus aureus ATCC 25923 by broth microdilution method; type: functional
Streptococcus pneumoniae [2] = assay: Antibacterial activity against erythromycin-resistant Streptococcus pneumoniae B1 expressing erm gene by broth microdilution method; type: functional
Staphylococcus aureus [3] = assay: Antibacterial activity against penicillin-resistant Staphylococcus aureus clinical isolate by broth microdilution method; type: functional
Streptococcus pneumoniae [4] = assay: Ratio of azithromycin MIC to compound MIC for erythromycin-resistant Streptococcus pneumoniae B1; type: functional
Salmonella typhimurium [5] = assay: Antibacterial activity against Salmonella typhimurium TA98 by broth microdilution method; type: functional, Salmonella enterica subsp. enterica serovar Typhimurium; settings: Salmonella enterica
Streptococcus pyogenes [6] = assay: Antibacterial activity against erythromycin-resistant Streptococcus pyogenes RE clinical isolate by broth microdilution method; type: functional
Streptococcus pneumoniae [7] = assay: Ratio of azithromycin MIC to compound MIC for erythromycin-resistant Streptococcus pneumoniae A22072 expressing mef gene; type: functional
Streptococcus pneumoniae [8] = assay: Antibacterial activity against erythromycin-resistant Streptococcus pneumoniae A22072 expressing mef gene by broth microdilution method; type: functional
Streptococcus pyogenes [9] = assay: Antibacterial activity against erythromycin-susceptible Streptococcus pyogenes by broth microdilution method; type: functional
Streptococcus pneumoniae [10] = assay: Ratio of azithromycin MIC to compound MIC for erythromycin-resistant Streptococcus pneumoniae AB11 expressing erm and mef genes; type: functional
Streptococcus pneumoniae [11] = assay: Antibacterial activity against erythromycin-susceptible Streptococcus pneumoniae ATCC 49619 by broth microdilution method; type: functional
Salmonella typhimurium [12] = assay: Antibacterial activity against Salmonella typhimurium TA102 by broth microdilution method; type: functional, Salmonella enterica subsp. enterica serovar Typhimurium; settings: Salmonella enterica
Streptococcus pneumoniae [13] = assay: Antibacterial activity against erythromycin-resistant Streptococcus pneumoniae AB11 expressing erm and mef genes by broth microdilution method; type: functional
Staphylococcus aureus [14] = assay: Antibacterial activity against methicillin-susceptible Staphylococcus aureus ATCC 29213 by broth microdilution method; type: functional

Structure (SMILES)	MIC (Staphylococcus aureus [1]) [µg/mL]	MIC (Streptococcus pneumoniae [2]) [µg/mL]	MIC (Staphylococcus aureus [3]) [µg/mL]	Ratio (Streptococcus pneumoniae [4])	MIC (Salmonella typhimurium [5]) [µg/mL]	MIC (Streptococcus pyogenes [6]) [µg/mL]	Ratio (Streptococcus pneumoniae [7])	MIC (Streptococcus pneumoniae [8]) [µg/mL]	MIC (Streptococcus pyogenes [9]) [µg/mL]	Ratio (Streptococcus pneumoniae [10])	MIC (Streptococcus pneumoniae [11]) [µg/mL]	MIC (Salmonella typhimurium [12]) [µg/mL]	MIC (Streptococcus pneumoniae [13]) [µg/mL]	MIC (Staphylococcus aureus [14]) [µg/mL]
CC[C@H]1OC(=O)[C@H](C)[C@@H](O[C@H]2C[C@@](C)(OC)[C@@H](OC(=O)NCCCCNC(=O)c3cc([N+](=O)[O-])cc([N+](=O)[O-])c3)[C@H](C)O2)[C@H](C)[C@@H](O[C@@H]2O[C@H](C)C[C@H](N(C)C)[C@H]2O)[C@](C)(O)C[C@@H](C)CN(C)[C@H](C)[C@@H](OC(=O)NCc2ccc(F)c(F)c2)[C@]1(C)O	0.25 (≈ 0.204 µM)	0.25 (≈ 0.204 µM)	4 (≈ 3.26 µM)	512	1 (≈ 0.815 µM)	16 (≈ 13 µM)	133	0.03 (≈ 0.0245 µM)	2 (≈ 1.63 µM)	128	0.03 (≈ 0.0245 µM)	0.5 (≈ 0.408 µM)	2 (≈ 1.63 µM)	4 (≈ 3.26 µM)
CC[C@H]1OC(=O)[C@H](C)[C@@H](O[C@H]2C[C@@](C)(OC)[C@@H](OC(=O)NCCCCNC(=O)c3cc([N+](=O)[O-])cc([N+](=O)[O-])c3)[C@H](C)O2)[C@H](C)[C@@H](O[C@@H]2O[C@H](C)C[C@H](N(C)C)[C@H]2O)[C@](C)(O)C[C@@H](C)CN(C)[C@H](C)[C@@H](OC(=O)NCCc2ccc(OC)cc2)[C@]1(C)O	0.25 (≈ 0.203 µM)	0.25 (≈ 0.203 µM)	4 (≈ 3.24 µM)	512	1 (≈ 0.81 µM)	16 (≈ 13 µM)	133	0.03 (≈ 0.0243 µM)	1 (≈ 0.81 µM)	128	0.03 (≈ 0.0243 µM)	0.5 (≈ 0.405 µM)	2 (≈ 1.62 µM)	4 (≈ 3.24 µM)
CC[C@H]1OC(=O)[C@H](C)[C@@H](O[C@H]2C[C@@](C)(OC)[C@@H](OC(=O)NCCCCNC(=O)c3cc([N+](=O)[O-])cc([N+](=O)[O-])c3)[C@H](C)O2)[C@H](C)[C@@H](O[C@@H]2O[C@H](C)C[C@H](N(C)C)[C@H]2O)[C@](C)(O)C[C@@H](C)CN(C)[C@H](C)[C@@H](OC(=O)NCCc2ccccc2Cl)[C@]1(C)O	0.12 (≈ 0.0969 µM)	0.25 (≈ 0.202 µM)	2 (≈ 1.61 µM)	512	1 (≈ 0.807 µM)	16 (≈ 12.9 µM)	133	0.03 (≈ 0.0242 µM)	1 (≈ 0.807 µM)	128	0.03 (≈ 0.0242 µM)	0.25 (≈ 0.202 µM)	2 (≈ 1.61 µM)	4 (≈ 3.23 µM)
CC[C@H]1OC(=O)[C@H](C)[C@@H](O[C@H]2C[C@@](C)(OC)[C@@H](OC(=O)NNC(=O)c3ccccc3OC)[C@H](C)O2)[C@H](C)[C@@H](O[C@@H]2O[C@H](C)C[C@H](N(C)C)[C@H]2O)[C@](C)(O)C[C@@H](C)CN(C)[C@H](C)[C@@H](OC(=O)NCCc2ccccc2)[C@]1(C)O	2 (≈ 1.84 µM)	8 (≈ 7.35 µM)	4 (≈ 3.68 µM)		16 (≈ 14.7 µM)	64 (≈ 58.8 µM)		2 (≈ 1.84 µM)	32 (≈ 29.4 µM)		0.06 (≈ 0.0551 µM)	8 (≈ 7.35 µM)	16 (≈ 14.7 µM)	2 (≈ 1.84 µM)
CC[C@H]1OC(=O)[C@H](C)[C@@H](O[C@H]2C[C@@](C)(OC)[C@@H](O)[C@H](C)O2)[C@H](C)[C@@H](O[C@@H]2O[C@H](C)C[C@H](N(C)C)[C@H]2O)[C@](C)(O)C[C@@H](C)CN(C)[C@H](C)[C@@H](O)[C@]1(C)O [AZITHROMYCIN]	0.25 (≈ 0.334 µM)	128 (≈ 171 µM)	0.5 (≈ 0.668 µM)		0.5 (≈ 0.668 µM)	8 (≈ 10.7 µM)		4 (≈ 5.34 µM)	0.03 (≈ 0.0401 µM)		0.03 (≈ 0.0401 µM)	0.25 (≈ 0.334 µM)	256 (≈ 342 µM)	2 (≈ 2.67 µM)
CC[C@H]1OC(=O)[C@H](C)[C@@H](O[C@H]2C[C@@](C)(OC)[C@@H](O)[C@H](C)O2)[C@H](C)[C@@H](O[C@@H]2O[C@H](C)C[C@H](N(C)C)[C@H]2O)[C@](C)(OC)C[C@@H](C)C(=O)[C@H](C)[C@@H](O)[C@]1(C)O [CLARITHROMYCIN]	0.12 (≈ 0.16 µM)	64 (≈ 85.6 µM)	0.03 (≈ 0.0401 µM)		0.5 (≈ 0.668 µM)	4 (≈ 5.35 µM)		4 (≈ 5.35 µM)	0.03 (≈ 0.0401 µM)		0.03 (≈ 0.0401 µM)	0.25 (≈ 0.334 µM)	128 (≈ 171 µM)	0.12 (≈ 0.16 µM)
CC[C@H]1OC(=O)[C@H](C)[C@@H](O[C@H]2C[C@@](C)(OC)[C@@H](O)[C@H](C)O2)[C@H](C)[C@@H](O[C@@H]2O[C@H](C)C[C@H](N(C)C)[C@H]2O)[C@](C)(O)C[C@@H](C)C(=O)[C@H](C)[C@@H](O)[C@]1(C)O [ERYTHROMYCIN]	0.06 (≈ 0.0818 µM)	128 (≈ 174 µM)	0.25 (≈ 0.341 µM)		0.5 (≈ 0.681 µM)	4 (≈ 5.45 µM)		8 (≈ 10.9 µM)	0.03 (≈ 0.0409 µM)		0.03 (≈ 0.0409 µM)	2 (≈ 2.73 µM)	256 (≈ 349 µM)	0.12 (≈ 0.164 µM)
